Test results published in EPA's ToxValDB 9.5 (doi:10.2903/j.efsa.2009.1354).
Values after ≈ are worked out from the molar mass of the structure shown. Values joined by “and” are separate entries in the source; they are usually repeats but may differ in a detail not shown here. Equal entries are not always repeated.

What was measured:
Anas platyrhynchos [1] = conditions: for LD50: acute, unspecified; for LD50 / LC50: oral, mortality; for LC50: short-term, feed
Aphidius rhopalosiphi = conditions: acute; duration: 2 days; mortality
Apis mellifera = conditions: acute; duration: 48 hours; dermal; mortality
Colinus virginianus = conditions: for LC50 / LD50: acute, oral, mortality; for LC50: diet
Coturnix japonica = conditions: acute, oral, mortality
Cucumis sativus = conditions: acute; duration: 21 days; biomass
Daphnia magna = conditions: chronic/long-term; duration: 21 days; reproduction
Folsomia candida = conditions: chronic/long-term; duration: 28 days
Hypoaspis aculeifer = conditions: chronic/long-term; duration: 16 days; reproduction
Lepomis macrochirus = conditions: acute; duration: 96 hours; mortality
Oncorhynchus mykiss = conditions: chronic/long-term; duration: 14 days; growth
Oryctolagus sp. = conditions: acute; oral; mortality
Phasianus sp. = conditions: oral, mortality; for LD50: acute, unspecified
Anas platyrhynchos [2] = assay: LC10; higher = less toxic; conditions: short-term; duration: 14 days; oral; feed; mortality

Molecule CCCCN(CCCC)SN(C)C(=O)Oc1cccc2c1OC(C)(C)C2 [Carbosulfan] has an LD50 (Anas platyrhynchos [1]; F) of 0.86 mg/kg-day, an LD50 (Anas platyrhynchos [1]; M) of 0.71 mg/kg-day and an NOEL (Anas platyrhynchos [1]; reproductive) of 2.5 mg/kg-day. The LC50 (Anas platyrhynchos [1]; duration: 5 days) was 10 mg/kg-day and 17 mg/kg-day, the LC50 (Anas platyrhynchos [1]; duration: 14 days) was 1.6 mg/kg-day and the LC50 (Anas platyrhynchos [1]) was 3.99 mg/kg-day. The LEL (Aphidius rhopalosiphi) was 120 g/ha, the LD50 (Apis mellifera) was 0.18 µg/piece and the LC50 (Colinus virginianus; duration: 5 days) was 114 mg/kg-day. It also gave an LC50 (Colinus virginianus; duration: 7 days) of 20.8 mg/kg-day, an LC50 (Colinus virginianus; duration: 14 days) of 15.8 mg/kg-day and an LD50 (Colinus virginianus; M/F) of 8 mg/kg-day. The LC50 (Colinus virginianus) was 239 mg/kg-day, the LD50 (Colinus virginianus) was 82 mg/kg-day and the NOEL (Colinus virginianus; reproduction developmental) was 10.8 mg/kg-day. For the same molecule, the LD50 (Coturnix japonica; F) was 3.5 mg/kg-day, the LD50 (Coturnix japonica; M) was 4.9 mg/kg-day and the LEL (Cucumis sativus) was 1500 g/ha. The NOEC (Daphnia magna) was 0.0032 mg/L, the NOEC (Folsomia candida) was 0.3 mg/kg and the NOEC (Hypoaspis aculeifer) was 20 mg/kg. The LC50 (Lepomis macrochirus) was 0.015 mg/L (≈ 0.0394 µM), the NOEC (Oncorhynchus mykiss) was 0.004 mg/L and the LD50 (Oryctolagus sp.) was 42.7 mg/kg-day. The LD50 (Phasianus sp.; F) was 6.2 mg/kg-day, the LD50 (Phasianus sp.; M) was 4 mg/kg-day and the LD50 (Phasianus sp.) was 20 mg/kg-day. The LC50 (Phasianus sp.; short-term, feed) was 567 mg/kg-day, the NOAEL (Rattus norvegicus; acute, clinical chemistry) was 0.5 mg/kg-day and the LD50 (Rattus norvegicus; acute, oral, mortality) was under 5.6 mg/kg-day. For the same molecule, the NOAEL (Rattus norvegicus; chronic) was 0.1 mg/kg-day, the NOAEL (Rattus norvegicus; reproduction developmental, reproduction) was 1.2 mg/kg-day and the LC10 (Anas platyrhynchos [2]) was 0.64 mg/kg-day.
